Experimental data as given in US9284306B2, “(R)-Nifuratel, its use for the treatment of infections and synthesis of (R) and (S)-Nifuratel” (POLICHEM SA, priority 2012, dated 2016).
Converted amounts (≈) assume the structure as drawn. Read-outs that look alike come from different tables or passages of the source.

Tests used:
[1] = tested on: Staphylococcus aureus (MRSA); test: MIC, broth microdilution; type: cell-based
Protocol: (§1) Strains were prepared from freeze-dried pellets. An isolation of the suspensions (to test the strains purity) and a strains massive growth were made by streaking microbial suspensions on agar media. The bacterial colonies on agar plates were collected with 3-5 mL of specific liquid medium+15% glycerol and then the aliquots were frozen at −80° C.
(§2) Compounds Minimal Inhibitory Concentration (MIC) was determined through broth micro-dilution susceptibility testing with a method developed following the National Committee for Clinical Laboratory Standards (CLSI) M07-A8 and M11-A7 references. Assays were carried out in specific media (Table 3). The tests were performed either following the broth microdilution assay or the agar dilution assay. Compounds stock solutions were made at 12.8 mg/mL in DMSO 100%. A series of twofold dilutions were then prepared using the strain specific broth. Final concentrations were from 0.125 μg/mL to 64 μg/mL at 1% DMSO. MIC is defined as the lowest concentration of antibacterial agent which prevent any visible growth.

[2] = tested on: Lactobacillus iners ATCC 55195; test: MIC, broth microdilution; type: cell-based; settings: ATCC55195; broth microdilution; Lactobacillus iners ATCC 55195; read-out: MIC
Protocol: (§3) Micrococcus pyogenes (ATCC 11631), Bacillus subtilis (ATCC 11774), Lactobacillus iners (ATCC 55195), Escherichia coli (ATCC 11775), Proteus mirabilis (ATCC 14153), Klebsiella pneumoniae (ATCC 10031), Shigella sonnei (ATCC 11060), Neisseria gonorrhoeae (ATCC 19424), Salmonella typhimurium (ATCC 14028) Salmonella paratyphi B (ATCC 10719), Helicobacter pylori (ATCC 43504) and several strains of Atopobium vaginae and Gardnerella vaginalis.
as §1, §2

[3] = tested on: Neisseria gonorrhoeae ATCC 19424; test: MIC, broth microdilution; type: cell-based; settings: ATCC19424; broth microdilution; Neisseria gonorrhoeae ATCC 19424; read-out: MIC
Protocol: as §3, §1, §2

[4] = tested on: Escherichia coli ATCC 11775; test: MIC, broth microdilution; type: cell-based; settings: ATCC11775; broth microdilution; Escherichia coli ATCC 11775; read-out: MIC
Protocol: as §3, §1, §2

[5] = tested on: Salmonella typhimurium ATCC 14028; test: MIC, broth microdilution; type: cell-based; settings: Salmonella enterica; broth microdilution; Salmonella typhimurium ATCC 14028; read-out: MIC
Protocol: as §3, §1, §2

[6] = tested on: Shigella sonnei ATCC 11060; test: MIC, broth microdilution; type: cell-based; settings: ATCC11060
Protocol: as §3, §1, §2

[7] = tested on: Micrococcus pyogenes ATCC 11631; test: MIC, broth microdilution; type: cell-based; settings: Staphylococcus aureus, ATCC11631; broth microdilution; Micrococcus pyogenes ATCC 11631; read-out: MIC
Protocol: as §3, §1, §2

[8] = tested on: Helicobacter pylori ATCC 43504; test: MIC, broth microdilution; type: cell-based; settings: ATCC43504; broth microdilution; Helicobacter pylori ATCC 43504; read-out: MIC
Protocol: as §3, §1, §2

[9] = tested on: Proteus mirabilis ATCC 14153; test: MIC, broth microdilution; type: cell-based; settings: ATCC14153; broth microdilution; Proteus mirabilis ATCC 14153; read-out: MIC
Protocol: as §3, §1, §2

[10] = tested on: Klebsiella pneumonia ATCC 10031; test: MIC, broth microdilution; type: cell-based; settings: Klebsiella pneumoniae, ATCC10031; broth microdilution; Klebsiella pneumonia ATCC 10031; read-out: MIC
Protocol: as §3, §1, §2

[11] = tested on: Salmonella paratyphi B ATCC 10719; test: MIC, broth microdilution; type: cell-based; settings: Salmonella enterica
Protocol: as §3, §1, §2

Bacillus subtilis = test: MIC, broth microdilution; type: cell-based; settings: broth microdilution, read-out: MIC
Protocol: as §3, §1, §2

Atopobium vaginae = test: MIC, agar dilution; type: cell-based; settings: Fannyhessea vaginae
Protocol: as §3, §1, §2

Gardnerella vaginalis = test: MIC, agar dilution; type: cell-based
Protocol: as §3, §1, §2

in vivo [12] = settings: male, rat, po, 15 mg/kg
in vivo [13] = settings: male, rat, iv, 2 mg/kg

For `CSC[C@@H]1CN(/N=C/c2ccc([N+](=O)[O-])o2)C(=O)O1` [S-Nifuratel, (S)-Nifuratel], the MIC [1] was 4 µg/mL (≈ 14 µM), the MIC [2] was 32 µg/mL (≈ 112 µM) and the MIC [3] was 0.5 µg/mL (≈ 1.75 µM). For the same molecule, the MIC [4] was 2 µg/mL (≈ 7.01 µM), the MIC [5] was 8 µg/mL (≈ 28 µM) and the MIC [6] was 4 µg/mL (≈ 14 µM). For the same molecule, the MIC [7] was 1 µg/mL (≈ 3.51 µM), the MIC [8] was 0.25 µg/mL (≈ 0.876 µM) and the MIC [9] was 8 µg/mL (≈ 28 µM). For the same molecule, the MIC [10] was 4 µg/mL (≈ 14 µM), the MIC [11] was 4 µg/mL (≈ 14 µM) and the MIC (Bacillus subtilis) was 1 µg/mL (≈ 3.51 µM). The MIC (Atopobium vaginae; CCUG38953, agar dilution, Atopobium vaginae CCUG 38953, read-out: MIC) was 0.25 µg/mL (≈ 0.876 µM), the MIC (Atopobium vaginae; CCUG39382, agar dilution, Atopobium vaginae CCUG 39382, read-out: MIC) was 0.25 µg/mL (≈ 0.876 µM) and the MIC (Atopobium vaginae; CCUG42099, agar dilution, Atopobium vaginae CCUG 42099, read-out: MIC) was 0.5 µg/mL (≈ 1.75 µM). It also gave an MIC (Atopobium vaginae; CCUG43049, agar dilution, Atopobium vaginae CCUG 43049, read-out: MIC) of 0.5 µg/mL (≈ 1.75 µM), an MIC (Atopobium vaginae; CCUG44061) of 0.125 µg/mL (≈ 0.438 µM) and an MIC (Atopobium vaginae; CCUG44156, agar dilution, Atopobium vaginae CCUG 44156, read-out: MIC) of 0.25 µg/mL (≈ 0.876 µM). For the same molecule, the MIC (Atopobium vaginae; CCUG48515, agar dilution, Atopobium vaginae CCUG 48515, read-out: MIC) was 1 µg/mL (≈ 3.51 µM), the MIC (Atopobium vaginae; CCUG55226, agar dilution, Atopobium vaginae CCUG 55226, read-out: MIC) was 1 µg/mL (≈ 3.51 µM) and the MIC (Atopobium vaginae; CCUG55227, agar dilution, Atopobium vaginae CCUG 55227, read-out: MIC) was 0.5 µg/mL (≈ 1.75 µM). The MIC (Gardnerella vaginalis; ATCC14018, agar dilution, Gardnerella vaginalis ATCC 14018, read-out: MIC) was 2 µg/mL (≈ 7.01 µM), the MIC (Gardnerella vaginalis; agar dilution, Gardnerella vaginalis C2, read-out: MIC) was 8 µg/mL (≈ 28 µM) and the MIC (Gardnerella vaginalis; agar dilution, Gardnerella vaginalis D2, read-out: MIC) was 2 µg/mL (≈ 7.01 µM). It also gave an MIC (Gardnerella vaginalis; agar dilution, Gardnerella vaginalis E2, read-out: MIC) of 2 µg/mL (≈ 7.01 µM), an MIC (Gardnerella vaginalis; agar dilution, Gardnerella vaginalis G2, read-out: MIC) of 1 µg/mL (≈ 3.51 µM) and an MIC (Gardnerella vaginalis; agar dilution, Gardnerella vaginalis H2, read-out: MIC) of 2 µg/mL (≈ 7.01 µM). It also gave an MIC (Gardnerella vaginalis; agar dilution, Gardnerella vaginalis J2, read-out: MIC) of 4 µg/mL (≈ 14 µM), an MIC (Gardnerella vaginalis; agar dilution, Gardnerella vaginalis K2, read-out: MIC) of 4 µg/mL (≈ 14 µM) and an AUC(0-t) (in vivo [12]) of 32.6 ng·h/mL. For the same molecule, the Clast (in vivo [12]) was 3 ng/mL, the Cmax (in vivo [12]) was 6 ng/mL and the Tlast (in vivo [12]) was 480 min. It also gave a Tmax (in vivo [12]) of 5 min, an AUC(0-inf) (in vivo [13]) of 167 ng·h/mL and an AUC(0-t) (in vivo [13]) of 166 ng·h/mL. For the same molecule, the Clast (in vivo [13]) was 5 ng/mL, the Cmax (in vivo [13]) was 1150 ng/mL and the MRT (in vivo [13]) was 4 min. It also gave a Tlast (in vivo [13]) of 53 min, a Tmax (in vivo [13]) of 2 min and a VSR (in vivo [13]) of 0.9 L/kg. For the same molecule, the clearance (in vivo [13]) was 203 mL/min/kg and the half-life (in vivo [13]) was 8 min.
